Results as given in ChEMBL document CHEMBL5352452, “Design, synthesis and pharmacological evaluation of β-carboline derivatives as potential antitumor agent via targeting autophagy” (Eur J Med Chem, 2023).
Calls of active or inactive are those of the source. The rule behind the calls is not given here.

What was measured:
HCT-116 [1] = assay: Induction of apoptosis in human HCT-116 cells assessed as increase in LC3-II expression upto 4 uM incubated for 24 hrs by Western blot analysis; type: functional, cell-based
HCT-116 [2] = assay: Induction of apoptosis in human HCT-116 cells assessed as early apoptotic cells at 2 uM incubated for 24 hrs in presence of Z-VAD-FMK by annexin V FITC/propidium iodide staining based flow cytometry (reference value: 6.3 %); type: functional
CT26 [3] = assay: Antitumor activity against […] CT26 cells xenografted in C57BL/6 mouse assessed as reduction in tumor volume at 45 mg/kg, ip administered once every two days measured after 8 days; type: functional, organism-based; conditions: time 8.0 day
HCT-116 [4] = assay: Inhibition of colony formation in human HCT-116 cells at 1 to 4 uM measured after 14 days by crystal violet staining based analysis; type: functional, cell-based; conditions: dose 1-4 µM, time 14.0 day
786-0 = assay: Antiproliferative activity against human 786-0 cells assessed as inhibition of cell growth measured after 48 hrs by MTT assay; type: functional, cell-based; conditions: 786-0, 48 h
HCT-116 [5] = assay: Induction of apoptosis in human HCT-116 cells assessed as increase in caspase 3 expression upto 5 uM incubated for 24 hrs by Western blot analysis; type: functional, cell-based
HCT-116 [6] = assay: Induction of apoptosis in human HCT-116 cells assessed as necrotic cells at 2 uM incubated for 24 hrs in presence of Z-VAD-FMK by annexin V FITC/propidium iodide staining based flow cytometry (reference value: 2.9 %); type: functional
ECa-109 cell line = assay: Antiproliferative activity against human Eca-109 cells assessed as inhibition of cell growth measured after 48 hrs by MTT assay; type: functional, cell-based; conditions: ECa-109, 48 h
HCT-116 [7] = assay: Induction of apoptosis in human HCT-116 cells assessed as late apoptotic cells at 2 uM incubated for 24 hrs by annexin V FITC/propidium iodide staining based flow cytometry (reference value: 4.6%); type: functional
HCT-116 [8] = assay: Downregulation of Myc-v2 in human HCT-116 cells at 2 uM incubated for 24 hrs by RNA sequencing analysis; type: functional, cell-based
HCT-116 [9] = assay: Induction of apoptosis in human HCT-116 cells assessed as viable cells at 1 uM incubated for 24 hrs by annexin V FITC/propidium iodide staining based flow cytometry (reference value: 83 %); type: functional; conditions: read-out: Activity
HCT-116 [10] = assay: Induction of autophagy in human HCT-116 cells assessed as increase in LC3-II expression at 3 uM measured upto 36 hrs by Western blot analysis; type: functional, cell-based
HCT-116 [11] = assay: Induction of apoptosis in human HCT-116 cells assessed as late apoptotic cells at 1 uM incubated for 24 hrs in presence of Z-VAD-FMK by annexin V FITC/propidium iodide staining based flow cytometry (reference value: 4.6 %); type: functional
HCT-116 [12] = assay: Antiproliferative activity against human HCT-116 cells assessed as inhibition of cell growth at 1 to 4 uM by CCK-8 assay; type: functional, cell-based; conditions: dose 1-4 µM, time <= 7.0 day, TDE = time-dependent effect
SK-OV-3 = assay: Antiproliferative activity against human SK-OV-3 cells assessed as inhibition of cell growth measured after 48 hrs by MTT assay; type: functional, cell-based; conditions: SK-OV-3, 48 h
HCT-116 [13] = assay: Upregulation of bile acid metabolism pathway in human HCT-116 cells at 2 uM incubated for 24 hrs by RNA sequencing analysis; type: functional, cell-based
HCT-116 [14] = assay: Induction of autophagy in human HCT-116 cells assessed as increase in LC3-II expression upto 5 uM incubated for 24 hrs by Western blot analysis; type: functional, cell-based
A-375 = assay: Antiproliferative activity against human A-375 cells assessed as inhibition of cell growth measured after 48 hrs by MTT assay; type: functional, cell-based; conditions: A-375, 48 h
HCT-116 [15] = assay: Inhibition of colony formation in ATG5 knockout human HCT-116 cells upto 4 uM […] by crystal violet staining based analysis; type: functional, cell-based
HCT-116 [16] = assay: Antiproliferative activity against ATG5 knockout human HCT-116 cells assessed as inhibition of cell growth measured after 24 hrs by CCK-8 assay; type: functional, cell-based; conditions: HCT-116, 24 h
HCT-116 [17] = assay: Induction of morphological changes in human HCT-116 cells assessed as reduction in intercellular contact at 2 to 6 uM measured after 24 hrs by microscopic analysis; type: functional, cell-based; conditions: dose 2-6 µM
HT-29 = assay: Antiproliferative activity against human HT-29 cells assessed as inhibition of cell growth measured after 48 hrs by MTT assay; type: functional, cell-based; conditions: HT-29, 48 h
HCT-116 [18] = assay: Induction of apoptosis in ATG5 knockout human HCT-116 cells assessed as increase in caspase 3 expression upto 4 uM incubated for 24 hrs by Western blot analysis; type: functional, cell-based
CWR22R = assay: Antiproliferative activity against human 22Rv1 cells assessed as inhibition of cell growth measured after 48 hrs by MTT assay; type: functional, cell-based; conditions: 22Rv1, 48 h
HCT-116 [19] = assay: Induction of autophagy in human HCT-116 cells assessed as increase in p62 expression upto 5 uM incubated for 24 hrs by Western blot analysis; type: functional, cell-based
KB = assay: Antiproliferative activity against human KB cells assessed as inhibition of cell growth measured after 48 hrs by MTT assay; type: functional, cell-based
HCT-116 [20] = assay: Induction of apoptosis in p53 knockout human HCT-116 cells assessed as increase in cleaved caspase 3 expression upto 5 uM incubated for 24 hrs by Western blot analysis; type: functional, cell-based
BGC-823 = assay: Antiproliferative activity against human BGC-823 cells assessed as inhibition of cell growth measured after 48 hrs by MTT assay; type: functional, cell-based; conditions: BGC-823, 48 h
MCF7 = assay: Antiproliferative activity against human MCF7 cells assessed as inhibition of cell growth measured after 48 hrs by MTT assay; type: functional, cell-based; conditions: MCF7, 48 h
HCT-116 [21] = assay: Upregulation of inflammatory response gene in human HCT-116 cells at 2 uM incubated for 24 hrs by RNA sequencing analysis; type: functional, cell-based
HCT-116 [22] = assay: Induction of morphological changes in human HCT-116 cells assessed as appearance of wrinkled cells at 2 to 6 uM measured after 24 hrs by microscopic analysis; type: functional, cell-based; conditions: dose 2-6 µM
HCT-116 [23] = assay: Antiproliferative activity against ATG7 knockout human HCT-116 cells assessed as inhibition of cell growth measured after 24 hrs by CCK-8 assay; type: functional, cell-based; conditions: HCT-116, 24 h
HCT-116 [24] = assay: Induction of apoptosis in human HCT-116 cells assessed as necrotic cells at 1 uM incubated for 24 hrs by annexin V FITC/propidium iodide staining based flow cytometry (reference value: 7.7%); type: functional
HCT-116 [25] = assay: Downregulation of DNA repair gene in human HCT-116 cells at 2 uM incubated for 24 hrs by RNA sequencing analysis; type: functional, cell-based
HCT-116 [26] = assay: Antiproliferative activity against human HCT-116 cells expressing ATG5-FLAG assessed as inhibition of cell growth measured after 24 hrs by CCK-8 assay; type: functional, cell-based; conditions: HCT-116, 24 h
HCT-116 [27] = assay: Induction of apoptosis in p53 knockout human HCT-116 cells assessed as increase in LC3-II expression upto 4 uM incubated for 24 hrs by Western blot analysis; type: functional, cell-based
HCT-116 [28] = assay: Induction of autophagy in ATG7 knockout human HCT-116 cells assessed as increase in LC3-II expression upto 4 uM measured after 24 hrs by Western blot analysis; type: functional, cell-based
CT26 [29] = assay: Antitumor activity against […] CT26 cells xenografted in C57BL/6 mouse assessed as reduction in tumor weight at 45 mg/kg, ip administered once every two days measured after 16 days; type: functional; design: scale not given: the % may be the effect or the level left; conditions: time 16 day

With `CN1CCN(Cc2cc3c4ccccc4n(CCCc4ccccc4)c3c(CN3CCN(C)CC3)n2)CC1` the Activity (HCT-116 [1]) was “Active”, the Activity (HCT-116 [2]) was 5.4% and the Activity (CT26 [3]) was “Active”. For the same compound, the inhibition (HCT-116 [4]) was “Active”, the IC50 (786-0) was 2.71 µM and the Activity (HCT-116 [5]) was “inactive”. It also gave an Activity (HCT-116 [6]) of 6.3%, an IC50 (ECa-109 cell line) of 8.62 µM and an Activity (HCT-116 [7]) of 6.8%. The Activity (HCT-116 [8]) was “Active”, the viability at 1 µM (HCT-116 [9]) was 83.3% and the Activity (HCT-116 [10]) was “Active”. The Activity (HCT-116 [11]) was 4.9%, the Activity (HCT-116 [12]) was “Tde” and the IC50 (SK-OV-3) was 10.6 µM. For the same compound, the Activity (HCT-116 [13]) was “Active”, the Activity (HCT-116 [14]) was “Active” and the IC50 (A-375) was 11.5 µM. The inhibition (HCT-116 [15]) was “inactive”, the IC50 (HCT-116 [16]) was 7.36 µM and the Activity (HCT-116 [17]) was “Active”. For the same compound, the IC50 (HT-29) was 2.02 µM, the Activity (HCT-116 [18]) was “inactive” and the IC50 (CWR22R) was 3.86 µM. The Activity (HCT-116 [19]) was “Active”, the IC50 (KB) was 8.12 µM and the Activity (HCT-116 [20]) was “inactive”. The IC50 (BGC-823) was 24.8 µM, the IC50 (MCF7) was 13.5 µM and the Activity (HCT-116 [21]) was “Active”. For the same compound, the Activity (HCT-116 [22]) was “Active”, the IC50 (HCT-116 [23]) was 7.89 µM and the Activity (HCT-116 [24]) was 6%. For the same compound, the Activity (HCT-116 [25]) was “Active”, the IC50 (HCT-116 [26]) was 4.57 µM and the Activity (HCT-116 [27]) was “Active”. For the same compound, the Activity (HCT-116 [28]) was “inactive” and the Activity (CT26 [29]) was 69.69%.
